Assay results taken from patent US20080090767A1, “Agent for prophylaxis of reflex sympathetic dystrophy after cerebral apoplexy” (Asahi Kasei Pharma Corporation, priority 2006, published 2008).

Legend:
[1] = system: patients with hemiplegia attributed to cerebrovascular disease (stroke) who developed RSD (shoulder-hand syndrome); assay: Test of treatment of post-stroke RSD (Reference Example 1); format: in vivo, human
Method: EL was administered after the onset of RSD (shoulder-hand syndrome) in the same use and dose as in Example 1 to 11 patients with hemiplegia attributed to cerebrovascular disease (stroke) at Brunnstrom stage III or lower in either the upper limb or a finger on admission, who developed RSD (shoulder-hand syndrome). These patients were classified into a therapeutic administration group. On the other hand, the EL administration group of Example 1 was compared as a control (preventive administration group) with the therapeutic administration group.

[2] = system: patients with hemiplegia attributed to cerebrovascular disease (stroke) at Brunnstrom stage III or lower, not yet developing RSD; assay: Test of prevention of onset of post-stroke RSD (Example 1); format: in vivo, human
Source text: Test subjects were 32 patients with hemiplegia attributed to cerebrovascular disease (stroke) at Brunnstrom stage III or lower in either the upper limb or a finger on admission. Patients already developing RSD (shoulder-hand syndrome) on admission and patients with pain in the shoulder joint or swollen paralyzed limbs were excluded from the test. […] On the other hand, 21 test subjects were classified into a rehabilitation alone group (control group) and compared with the EL administration group. Physical therapy and therapeutic exercise, occupational therapy, and the management of the paralyzed limbs were performed thoroughly in all the cases. […] EL administration was initiated 11 to 59 days after an attack of stroke (25.8 days on average) and continued until 5 months after the attack of stroke. The same observation period was applied to the control group. The test subjects were diagnosed as developing RSD (shoulder-hand syndrome) if they had diffuse pain not localized to the shoulder joint, edema involving skin color changes, skin temperature abnormalities, and range of motion limitations, and the practice of their rehabilitation was restricted. These criteria agreed to Veldman's diagnostic criteria or diagnostic criteria for CRPS-type 1 provided by the International Association for the Study of Pain.
Activities of daily living (ADL) were evaluated on the basis of the Barthel Index (BI) and the range of motion (ROM) of shoulder joint. The movable range of shoulder joint (also referred to as “shoulder ROM”) was regarded as restricted (Shoulder-ROM-restrictions were present.) if either abduction or flexion was restricted in measurement. The test subjects were also examined for sensory impairment, aphasia, and unilateral spatial neglect on admission.
Statistical analysis was conducted with unpaired t-test, Fisher's exact test or Wilcoxon test, and 5% or lower significance level was regarded as being significant.

[3] = system: RSD triggered and developed by a trauma or surgical invasion; conditions: literature report; cited from earlier work
[4] = therapeutic administration group
[5] = EL preventive administration group, 20 units i.m. once a week, until 5 months after the attack of stroke
[6] = preventive administration group

Molecule | Barthel index, Average ± SE (at completion of administration) [1, 4] | Barthel index, Median (at completion of administration) [1, 4] | No RSD, the number of persons (at completion of administration) ([1]; therapeutic administration group (EL after onset of RSD)) | Incidence of RSD converted to incidence in all patients with hemiplegia attributed to stroke in the facility ([2]; EL administration group) | Incidence of RSD (cases that developed RSD) ([2]; EL preventive administration group, 1 of the 12 cases) | The number of test subjects developing post-stroke RSD: Developed [2, 5] | The number of test subjects developing post-stroke RSD: Not developed [2, 5] | Incidence of RSD when EL administration was initiated within 48 days after stroke ([2]; administration initiated within 48 days after stroke) | Barthel index, Average ± SE (at completion of administration) [2, 6] | Barthel index, Median (at completion of administration) [2, 6] | No RSD, the number of persons (at completion of administration) [2, 6] | Effect on the initial onset of RSD in subjects having no anamnesis of RSD after a trauma or surgical invasion [3]
1-butyric acid-7-(L-2-aminobutyric acid)-26-L-aspartic acid-27-L-valine-29-L-alanine-calcitonin [elcatonin] | 31.8 ± 7.8 | 25 | 0 | approximately 1.3% | 8.3% | 1 | 11 | 0% | 60.8 ± 9.3 | 72.5 | 11 | –
O=C1O[C@H]([C@@H](O)CO)C(O)=C1O [vitamin C] | – | – | – | – | – | – | – | – | – | – | – | preventive effect
